Measurements taken from patent US20050123633A1, “Biological activity-promoting compositions containing soybean germ-origin isoflavone aglycon” (priority 2002, published 2005).

What was measured:
Assay type in all cases: in vivo, rat
[1] = tested on: OVX female SD rats; experiment: Body weight measurement in OVX rats on high-fat feed; settings: 17 β-estradiol 1 μg per animal per day, mean ± SD
Text: (§1) 1) Female SD rats (seven weeks) were procured, and were preliminarily kept for one week. The healthy female SD rats to be used as subjects (eight weeks) were raised in groups with uniform body weight. Rats other than those in the Sham group were ovarectomized (OVX). The Sham group was only laparotomized. After preliminarily keeping for one week after the OVX procedure, the rats were allowed free intake of high-fat feed having the composition shown in Table 2 for a period of 28 days starting on the day following preliminary keeping.
(§2) The rats were also allowed free intake of well water (3 ppm chlorine added). In addition, the environment of the animal facility had constant temperature and humidity of 23±2° C. and 55±10%. The atmosphere conditioning method involved ventilation (15 cycles/h), and the light time was from 8 am to 8 pm. The keeping apparatuses were stainless steel metabolic cages.
The body weights of all rats were measured once on days 0, 7, 14, 21 and 28.
(§3) Evaluation was made using the two-sided test, where significance levels were taken as 5 and 1%.

[2] = tested on: OVX female SD rats; experiment: Urine NO2/NO3 measurement (24-hour accumulated urine); settings: 17 β-estradiol 1 μg per animal per day, mean ± SD
Text: as §1, §2
(§4) Upon completion of administration on day 28, 24-hour fasting was performed, and the rats were necropsied under ether anesthetization in order to collect blood from the abdominal aorta. Regarding serum cholesterol, measurement of total serum cholesterol, HDL cholesterol, LDL cholesterol and cholesterol ester ratio were carried out, and blood neutral fat (TG), blood free fatty acid (FFA) and leptin were measured using enzymatic methods. In addition, the uterus weight per 100 g body weight was measured for the necropsied females rats. Also, body fat determination was made by measuring the weight of removed posterior abdominal wall fat, mesenteric fat, perirenal fat and periovarian fat per 100 g of body weight. The thymus weights for the necropsied female rats were measured based on the weight per 100 g of body weight.
(§5) The results of measurement for each group were expressed as mean values±standard deviations for each of the measured parameters, and significant differences were determined using Student's t-test. Evaluation was made using the two-sided test, where significance levels were taken as 5 and 1%.

[3] = tested on: OVX female SD rats; experiment: Serum cholesterol measurement; settings: after 28 days administration and 24-hour fasting, isoflavone aglycones 20 mg per kg body weight, 17 β-estradiol 1 μg per animal per day, mean ± SD; for Cholesterol ester (%): cholesterol ester ratio
Text: as §1, §2, §4, §3

[4] = tested on: OVX female SD rats; experiment: Blood neutral fat (TG) measurement; settings: after 28 days administration and 24-hour fasting, isoflavone aglycones 20 mg per kg body weight, 17 β-estradiol 1 μg per animal per day, mean ± SD
Text: as §1, §2, §4, §5

[5] = tested on: OVX female SD rats; experiment: Blood free fatty acid (FFA) measurement; settings: after 28 days administration and 24-hour fasting, isoflavone aglycones 20 mg per kg body weight, 17 β-estradiol 1 μg per animal per day, mean ± SD
Text: as §1, §2, §4, §5

[6] = tested on: OVX female SD rats; experiment: Leptin level measurement; settings: after 28 days administration and 24-hour fasting, isoflavone aglycones 20 mg per kg body weight, 17 β-estradiol 1 μg per animal per day, mean ± SD
Text: as §1, §2, §4, §5

[7] = tested on: OVX female SD rats; experiment: Body fat determination (weight of removed fat); settings: at necropsy after 28 days, isoflavone aglycones 20 mg per kg body weight, 17 β-estradiol 1 μg per animal per day, mean ± SD
Text: as §1, §2, §4, §5

[8] = tested on: OVX female SD rats; experiment: Thymus weight measurement; settings: for Change in Thymus Weight: at necropsy after 28 days, isoflavone aglycones 20 mg per kg body weight, 17 β-estradiol 1 μg per animal per day, mean ± SD
Text: as §1, §2, §4, §5

[9] = tested on: OVX female SD rats; experiment: Overall evaluation of biological activity promotion over all measured parameters; settings: at an administered amount of 1/4000 relative to isoflavone aglycones
Text: as §1
Consequently, results were obtained that caused concern over side effects when administered at high dosages.

[10] = day 0, isoflavone aglycones 20 mg per kg body weight in feed
[11] = day 7, isoflavone aglycones 20 mg per kg body weight in feed
[12] = day 14, isoflavone aglycones 20 mg per kg body weight in feed
[13] = day 21, isoflavone aglycones 20 mg per kg body weight in feed
[14] = day 28, isoflavone aglycones 20 mg per kg body weight in feed
[15] = day 0, isoflavone aglycones 20 mg per kg body weight
[16] = day 7, isoflavone aglycones 20 mg per kg body weight
[17] = day 14, isoflavone aglycones 20 mg per kg body weight
[18] = day 21, isoflavone aglycones 20 mg per kg body weight
[19] = day 28, isoflavone aglycones 20 mg per kg body weight

`O=c1c(-c2ccc(O)cc2)coc2cc(O)ccc12` [daidzein] was tested, and the “Change in Body Weight” value [1, 10] was 191.0 ± 7.31 g, the “Change in Body Weight” value [1, 11] was 216.1 ± 6.86 g and the “Change in Body Weight” value [1, 12] was 230.6 ± 6.58 g. The “Change in Body Weight” value [1, 13] was 245.4 ± 7.07 g, the “Change in Body Weight” value [1, 14] was 257.4 ± 7.71 g and the “Change in NO2/NO3 (urinary)” value [2, 15] was 6.0 ± 0.53 µmol. The “Change in NO2/NO3 (urinary)” value [2, 16] was 6.4 ± 0.54 µmol, the “Change in NO2/NO3 (urinary)” value [2, 17] was 6.4 ± 0.43 µmol and the “Change in NO2/NO3 (urinary)” value [2, 18] was 6.6 ± 0.40 µmol. The “Change in NO2/NO3 (urinary)” value [2, 19] was 6.0 ± 0.40 µmol, the “Serum HDL cholesterol” value [3] was 42.6 ± 2.25 mg/dL and the “Serum LDL cholesterol” value [3] was 36.3 ± 3.45 mg/dL. For the same molecule, the “Serum Total cholesterol” value [3] was 81.8 ± 2.57 mg/dL, the “Cholesterol ester (%)” value [3] was 70.1 ± 3.01% and the “Change in TG (blood neutral fat)” value [4] was 104.8 ± 16.71 mg/dL. The “Change in FFA (blood free fatty acid)” value [5] was 379.2 ± 24.45 mg/dL, the “Change in Leptin” value [6] was 1.7 ± 0.12 ng/mL and the “Body Fat: Mesenteric fat” value [7] was 2.8 ± 0.18 g/100 g; body weight. For the same molecule, the “Body Fat: Periovarian fat” value [7] was 3.1 ± 0.17 g/100 g; body weight, the “Body Fat: Perirenal fat” value [7] was 3.5 ± 0.20 g/100 g; body weight and the “Body Fat: posterior abdominal wall fat” value [7] was 2.6 ± 0.23 g/100 g; body weight. For the same molecule, the “thymus weight relative to the comparative group 1 (Sham) and the test group 1 (OVX), in words” value ([8]; 28 days) was “increase in weight” and the “Change in Thymus Weight” value [8] was 0.130 ± 0.02 g/100 g; body weight.
In the case of `C[C@]12CC[C@@H]3c4ccc(O)cc4CC[C@H]3[C@@H]1CC[C@@H]2O` [estradiol, 17 β-estradiol], the “Change in Body Weight” value [1, 10] is reported as 192.5 ± 7.12 g, the “Change in NO2/NO3 (urinary)” value [2, 15] is reported as 6.1 ± 0.29 µmol and the “Change in NO2/NO3 (urinary)” value [2, 16] is reported as 7.0 ± 0.60 µmol. For the same molecule, the “Change in NO2/NO3 (urinary)” value [2, 17] was 7.8 ± 0.59 µmol, the “Change in NO2/NO3 (urinary)” value [2, 18] was 9.0 ± 0.76 µmol and the “Change in NO2/NO3 (urinary)” value [2, 19] was 9.4 ± 0.39 µmol. For the same molecule, the “Serum HDL cholesterol” value [3] was 35.9 ± 3.38 mg/dL, the “Serum LDL cholesterol” value [3] was 38.2 ± 1.74 mg/dL and the “Serum Total cholesterol” value [3] was 72.1 ± 3.86 mg/dL. The “Cholesterol ester (%)” value [3] was 70.7 ± 2.80%, the “Change in TG (blood neutral fat)” value [4] was 105.1 ± 5.37 mg/dL and the “Change in FFA (blood free fatty acid)” value [5] was 362.8 ± 24.41 mg/dL. For the same molecule, the “Change in Leptin” value [6] was 0.7 ± 0.28 ng/mL, the “Body Fat: Mesenteric fat” value [7] was 2.5 ± 0.19 g/100 g; body weight and the “Body Fat: Periovarian fat” value [7] was 2.8 ± 0.27 g/100 g; body weight. For the same molecule, the “Body Fat: Perirenal fat” value [7] was 3.2 ± 0.22 g/100 g; body weight, the “Body Fat: posterior abdominal wall fat” value [7] was 1.9 ± 0.10 g/100 g; body weight and the “Change in Thymus Weight” value [8] was 0.112 ± 0.01 g/100 g; body weight. The “stimulatory (agonistic) action with respect to biological activity, in words” value [9] was “high”.
For `O=c1c(-c2ccc(O)cc2)coc2cc(O)cc(O)c12` [genistein], the “Change in Body Weight” value [1, 10] was 197.3 ± 10.18 g, the “Change in Body Weight” value [1, 11] was 216.9 ± 8.53 g and the “Change in Body Weight” value [1, 12] was 231.9 ± 9.77 g. The “Change in Body Weight” value [1, 13] was 249.4 ± 9.81 g, the “Change in Body Weight” value [1, 14] was 266.8 ± 8.6 g and the “Change in NO2/NO3 (urinary)” value [2, 15] was 6.1 ± 0.34 µmol. For the same molecule, the “Change in NO2/NO3 (urinary)” value [2, 16] was 6.4 ± 0.39 µmol, the “Change in NO2/NO3 (urinary)” value [2, 17] was 6.3 ± 0.56 µmol and the “Change in NO2/NO3 (urinary)” value [2, 18] was 6.2 ± 0.40 µmol. The “Change in NO2/NO3 (urinary)” value [2, 19] was 6.4 ± 0.4 µmol, the “Serum LDL cholesterol” value [3] was 40.6 ± 1.76 mg/dL and the “Serum Total cholesterol” value [3] was 85.8 ± 2.53 mg/dL. For the same molecule, the “Change in TG (blood neutral fat)” value [4] was 116.9 ± 9.90 mg/dL, the “Change in FFA (blood free fatty acid)” value [5] was 400.0 ± 19.01 mg/dL and the “Change in Leptin” value [6] was 1.9 ± 0.25 ng/mL. The “Body Fat: Mesenteric fat” value [7] was 2.6 ± 0.14 g/100 g; body weight, the “Body Fat: Periovarian fat” value [7] was 3.0 ± 0.26 g/100 g; body weight and the “Body Fat: Perirenal fat” value [7] was 3.7 ± 0.17 g/100 g; body weight. For the same molecule, the “Body Fat: posterior abdominal wall fat” value [7] was 2.8 ± 0.25 g/100 g; body weight and the “Change in Thymus Weight” value [8] was 0.110 ± 0.02 g/100 g; body weight.
